# Patent US10703765B2 (priority 2014, dated 2020)
# Where a name gives a salt, the structure may show the parent alone.
# Target: human σ1 receptor (Homo sapiens, UniProt Q99720)
# Experiment: biochemical
# Format: binding
# Design: μ and σ1 dual binding: key to the marks not given beside the values
# Conditions: not given
# Chain of human σ1 receptor (Q99720 whole entry): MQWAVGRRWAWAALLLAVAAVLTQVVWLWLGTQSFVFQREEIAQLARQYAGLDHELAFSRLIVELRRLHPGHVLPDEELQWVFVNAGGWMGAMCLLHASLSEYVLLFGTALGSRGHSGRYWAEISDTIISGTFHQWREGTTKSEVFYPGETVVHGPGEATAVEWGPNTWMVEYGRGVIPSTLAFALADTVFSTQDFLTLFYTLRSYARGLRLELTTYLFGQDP
Compound,μ and σ1 dual binding,Ki
"CC1OC2(CCN(CCc3ccccc3)CC2)CN(c2ccn(C)n2)C1=O.Cl (centres unmarked) [Example 20, 2-methyl-4-(1-methyl-1H-pyrazol-3-yl)-9-phenethyl-1-oxa-4,9-diazaspiro[5.5]undecan-3-one hydrochloride]",++,–
"CC1OC2(CCN(CCc3cccc(C(N)=O)c3)CC2)CN(c2ccccc2)C1=O (centres unmarked) [Example 266, 3-(2-(2-methyl-3-oxo-4-phenyl-1-oxa-4,9-diazaspiro[5.5]undecan-9-yl)ethyl)benzamide]",–,< 500 nM
"COc1ccc(N2CC3(CCN(CCc4ccccc4)CC3)OC(C)C2=O)cc1.Cl (centres unmarked) [Example 1, 4-(4-methoxyphenyl)-2-methyl-9-phenethyl-1-oxa-4,9-diazaspiro[5.5]undecan-3-one hydrochloride]",++,–
"CC1OC2(CCN(CCc3cccc(C(F)(F)F)n3)CC2)CN(c2ccccc2F)C1=O (centres unmarked) [Example 31, 4-(2-fluorophenyl)-2-methyl-9-(2-(6-(trifluoromethyl)pyridin-2-yl)ethyl)-1-oxa-4,9-diazaspiro[5.5]undecan-3-one hydrochloride]",–,< 500 nM
"CC1OC2(CCN(CCc3ncccc3Cl)CC2)CN(c2ccccc2)C1=O (centres unmarked) [Example 37, 9-(2-(3-chloropyridin-2-yl)ethyl)-2-methyl-4-phenyl-1-oxa-4,9-diazaspiro[5.5]undecan-3-one hydrochloride]",–,< 500 nM
"Nc1nc(CCN2CCC3(CC2)CN(c2ccccc2)C(=O)C2(CC2)O3)cs1 [Example 307, 8-[2-(2-aminothiazol-4-yl)ethyl]-12-phenyl-4-oxa-8,12-diazadispiro[2.1.5.3]tridecan-13-one dihydrochloride]",–,< 500 nM
"Cc1cc(C)n(CCN2CCC3(CC2)CN(c2ccccc2)C(=O)C(C)O3)n1.Cl (centres unmarked) [Example 77, 9-(2-(3,5-dimethyl-1H-pyrazol-1-yl)ethyl)-2-methyl-4-phenyl-1-oxa-4,9-diazaspiro[5.5]undecan-3-one hydrochloride]",++,–
"CC1OC2(CCN(CCn3ccc4cccnc43)CC2)CN(c2ccccc2)C1=O.Cl (centres unmarked) [Example 69, 9-(2-(1H-pyrrolo[2,3-b]pyridin-1-yl)ethyl)-2-methyl-4-phenyl-1-oxa-4,9-diazaspiro[5.5]undecan-3-one hydrochloride]",++,–
"CNS(=O)(=O)c1cccc(CCN2CCC3(CC2)CN(c2ccccc2)C(=O)C(C)O3)c1 (centres unmarked) [Example 93, N-methyl-3-(2-(2-methyl-3-oxo-4-phenyl-1-oxa-4,9-diazaspiro[5.5]undecan-9-yl)ethyl)benzenesulfonamide]",–,< 500 nM
"CC1OC2(CCN(CCOc3ccccc3)CC2)CN(c2ccccc2)C1=O.Cl (centres unmarked) [Example 72, 2-methyl-9-(2-phenoxyethyl)-4-phenyl-1-oxa-4,9-diazaspiro[5.5]undecan-3-one hydrochloride]",++,–
"COc1cccc(CCN2CCC3(CC2)CN(c2ccccc2)CCO3)c1.Cl [Example 320, 9-(3-methoxyphenethyl)-4-phenyl-1-oxa-4,9-diazaspiro[5.5]undecane hydrochloride]",++,–
"CC(C)C1OC2(CCN(CCc3cccnc3N)CC2)CN(c2ccccc2F)C1=O (centres unmarked) [Example 238, 9-(2-(2-aminopyridin-3-yl)ethyl)-4-(2-fluorophenyl)-2-isopropyl-1-oxa-4,9-diazaspiro[5.5]undecan-3-one dihydrochloride]",–,< 100 nM
"CC1OC2(CCN(CCc3ccc(F)cn3)CC2)CN(c2ccccc2)C1=O (centres unmarked) [Example 94, 9-(2-(5-fluoropyridin-2-yl)ethyl)-2-methyl-4-phenyl-1-oxa-4,9-diazaspiro[5.5]undecan-3-one hydrochloride]",–,< 500 nM
"CC(C)C1OC2(CCN(CCc3csc(N)n3)CC2)CN(c2ccccc2F)C1=O (centres unmarked) [Example 306, 9-(2-(2-aminothiazol-4-yl)ethyl)-4-(2-fluorophenyl)-2-isopropyl-1-oxa-4,9-diazaspiro[5.5]undecan-3-one dihydrochloride]",++,–
"CC1OC2(CCN(CCc3ccccc3)CC2)CN(c2ccc(O)cc2)C1=O (centres unmarked) [Example 293, 4-(4-hydroxyphenyl)-2-methyl-9-phenethyl-1-oxa-4,9-diazaspiro[5.5]undecan-3-one]",++,–
"Cl.O=C1COC2(CCN(Cc3ccccc3)CC2)CN1c1ccc(F)cc1 [Example 188, 9-benzyl-4-(4-fluorophenyl)-1-oxa-4,9-diazaspiro[5.5]undecan-3-one hydrochloride]",++,–
"CC1OC2(CCN(CCc3ccccc3O)CC2)CN(c2ccccc2)C1=O (centres unmarked) [Example 295, 9-(2-hydroxyphenethyl)-2-methyl-4-phenyl-1-oxa-4,9-diazaspiro[5.5]undecan-3-one]",–,< 100 nM
"CC1OC2(CCN(CCc3cncc(C(F)(F)F)c3)CC2)CN(c2ccccc2)C1=O (centres unmarked) [Example 112, 2-methyl-4-phenyl-9-(2-(5-(trifluoromethyl)pyridin-3-yl)ethyl)-1-oxa-4,9-diazaspiro[5.5]undecan-3-one hydrochloride]",–,< 500 nM

# Same assay, conditions: combined class from Ki-σ1 (human σ1 receptor, A1) and Ki-μ (human μ-opioid receptor, A2) radioligand binding
row,Compound,μ and σ1 dual binding
1,"O=C1N(c2cccnc2C(F)(F)F)CC2(CCN(CCc3cc(F)ccc3F)CC2)OC12CC2 [Example 341, 8-(2,5-difluorophenethyl)-12-(2-(trifluoromethyl)pyridin-3-yl)-4-oxa-8,12-diazadispiro[2.1.5.3]tridecan-13-one]",++
2,"CC1OC2(CCN(CCc3cc(C#N)ccn3)CC2)CN(c2ccccc2)C1=O (centres unmarked) [Example 41, 2-(2-(2-methyl-3-oxo-4-phenyl-1-oxa-4,9-diazaspiro[5.5]undecan-9-yl)ethyl)isonicotinonitrile]",++
3,"COc1ccc(CCN2CCC3(CC2)CN(c2ccccc2)C(=O)CO3)cc1 [Example 52, 9-(4-methoxyphenethyl)-4-phenyl-1-oxa-4,9-diazaspiro[5.5]undecan-3-one]",++
4,"O=C1COC2(CCN(CCc3ccccn3)CC2)CN1Cc1ccccn1 [Example 84, 9-(2-(pyridin-2-yl)ethyl)-4-(pyridin-2-ylmethyl)-1-oxa-4,9-diazaspiro[5.5]undecan-3-one]",++
5,"CC1OC2(CCN(CCc3ccc(NS(C)(=O)=O)cc3)CC2)CN(c2ccccc2)C1=O (centres unmarked) [Example 258, N-(4-(2-(2-methyl-3-oxo-4-phenyl-1-oxa-4,9-diazaspiro[5.5]undecan-9-yl)ethyl)phenyl)methanesulfonamide]",++
6,"O=C1COC2(CCN(Cc3ccccc3)CC2)CN1c1cccc(O)c1 [Example 287, 9-benzyl-4-(3-hydroxyphenyl)-1-oxa-4,9-diazaspiro[5.5] undecan-3-one]",++
7,"CC1OC2(CCN(CCc3cccc(NC(=O)N(C)C)c3)CC2)CN(c2ccccc2)C1=O (centres unmarked) [Example 248, 1,1-dimethyl-3-(3-(2-(2-methyl-3-oxo-4-phenyl-1-oxa-4,9-diazaspiro[5.5]undecan-9-yl)ethyl)phenyl)urea]",++
8,"O=C1COC2(CCN(CCc3ccccc3)CC2)CN1Cc1ccncc1 [Example 165, 9-phenethyl-4-(pyridin-4-ylmethyl)-1-oxa-4,9-diazaspiro[5.5]undecan-3-one]",++

# Same assay, conditions: read-out: μ and σ1 dual binding
row,Compound,Ki
1,"CC1OC2(CCN(CCn3c(=O)oc4ccccc43)CC2)CN(c2ccccc2)C1=O (centres unmarked) [Example 74, 3-(2-(2-methyl-3-oxo-4-phenyl-1-oxa-4,9-diazaspiro[5.5]undecan-9-yl)ethyl)benzo[d]oxazol-2(3H)-one hydrochloride]",< 500 nM
2,"C[C@H]1OC2(CCN(CCc3ccccc3F)CC2)CN(c2ncccc2C(F)(F)F)C1=O [Example 222a, (R)-9-(2-fluorophenethyl)-2-methyl-4-(3-(trifluoromethyl)pyridin-2-yl)-1-oxa-4,9-diazaspiro[5.5]undecan-3-one]",< 500 nM
3,"CC1OC2(CCN(CCc3ccccc3)CC2)CN(Cc2ncccc2F)C1=O (centres unmarked) [Example 173, 4-((3-fluoropyridin-2-yl)methyl)-2-methyl-9-phenethyl-1-oxa-4,9-diazaspiro[5.5]undecan-3-one]",< 100 nM
4,"COCCCN1CC2(CCN(CCc3ccccc3)CC2)OC2(CC2)C1=O [Example 180, 12-(3-methoxypropyl)-8-phenethyl-4-oxa-8,12-diazadispiro[2.1.5.3]tridecan-13-one hydrochloride]",< 500 nM
5,"CC1OC2(CCN(CCc3cccnc3N)CC2)CN(c2cnccc2C(F)(F)F)C1=O (centres unmarked) [Example 240, 9-(2-(2-aminopyridin-3-yl)ethyl)-2-methyl-4-(4-(trifluoromethyl)pyridin-3-yl)-1-oxa-4,9-diazaspiro[5.5]undecan-3-one hydrochloride]",> 500 nM
6,"CC1OC2(CCN(CCOc3cccnc3)CC2)CN(c2ccccc2)C1=O (centres unmarked) [Example 145, 2-methyl-4-phenyl-9-(2-(pyridin-3-yloxy)ethyl)-1-oxa-4,9-diazaspiro[5.5]undecan-3-one hydrochloride]",> 500 nM
7,"Oc1cccc(CCN2CCC3(CC2)CN(c2ccccc2)CCO3)c1 [Example 322, 3-(2-(4-phenyl-1-oxa-4,9-diazaspiro[5.5]undecan-9-yl)ethyl)phenol]",< 500 nM
8,"CC1OC2(CCN(CCc3ccccc3)CC2)CN(c2cnccn2)C1=O (centres unmarked) [Example 195, 2-methyl-9-phenethyl-4-(pyrazin-2-yl)-1-oxa-4,9-diazaspiro[5.5]undecan-3-one hydrochloride]",< 500 nM
9,"O=C1N(c2cccnc2C(F)(F)F)CC2(CCN(CCc3ccccc3F)CC2)OC12CC2 [Example 219, 8-(2-fluorophenethyl)-12-(2-(trifluoromethyl)pyridin-3-yl)-4-oxa-8,12-diazadispiro[2.1.5.3]tridecan-13-one]",< 500 nM
10,"O=C1COC2(CCN(CCc3cccc(O)c3)CC2)CN1c1ccccc1 [Example 291, 9-(3-hydroxyphenethyl)-4-phenyl-1-oxa-4,9-diazaspiro[5.5]undecan-3-one]",< 500 nM
11,"CC1OC2(CCN(CCN3CCCC3=O)CC2)CN(c2ccccc2)C1=O (centres unmarked) [Example 146, 2-methyl-9-(2-(2-oxopyrrolidin-1-yl)ethyl)-4-phenyl-1-oxa-4,9-diazaspiro[5.5]undecan-3-one]",> 500 nM
12,"O=C1COC2(CCN(CCc3ccccc3)CC2)CN1Cc1ccc(F)cn1 [Example 176, 4-((5-fluoropyridin-2-yl)methyl)-9-phenethyl-1-oxa-4,9-diazaspiro[5.5]undecan-3-one hydrochloride]",< 500 nM
